The results in this text go back to ChEMBL document CHEMBL5584299, “Undobolins A-L, Ophiobolin-Type Sesterterpenoids from Aspergillus undulatus” (J Nat Prod, 2024).

Test [1] has as its system Splenocyte. Nature of the test: Immunosuppressive activity in BALB/c mouse splenocytes assessed as inhibition of LPS-induced B cell proliferation incubated for 48 hrs by CCK-8 assay. Type of test: functional, cell-based. In general terms: Formazan colour is commonly taken as a measure of viable cells.
Test [2] has as its system Splenocyte. Nature of the test: Immunosuppressive activity in BALB/c mouse splenocytes assessed as inhibition of ConA-induced T cell proliferation incubated for 48 hrs by CCK-8 assay. It is filed as functional, cell-based.
A further test concerns RAW264.7. The experiment in a line: Antiinflammatory activity against mouse RAW264.7 cells assessed as reduction of LPS-induced NO production preincubated for 2 hrs followed by LPS-stimulation and measured after 12 hrs by Griess reagent assay. It is filed as functional, cell-based.
The next test relates to Candida albicans. The experiment in a line: Antifungal activity against Candida albicans ATCC10231 assessed as reduction in microbial growth incubated for 16 hrs by broth microdilution method. It is filed as functional.
Test [3] has as its target T1, 3-hydroxy-3-methylglutaryl-coenzyme A reductase (Homo sapiens, UniProt P04035).
T1 sequence (P04035 whole entry): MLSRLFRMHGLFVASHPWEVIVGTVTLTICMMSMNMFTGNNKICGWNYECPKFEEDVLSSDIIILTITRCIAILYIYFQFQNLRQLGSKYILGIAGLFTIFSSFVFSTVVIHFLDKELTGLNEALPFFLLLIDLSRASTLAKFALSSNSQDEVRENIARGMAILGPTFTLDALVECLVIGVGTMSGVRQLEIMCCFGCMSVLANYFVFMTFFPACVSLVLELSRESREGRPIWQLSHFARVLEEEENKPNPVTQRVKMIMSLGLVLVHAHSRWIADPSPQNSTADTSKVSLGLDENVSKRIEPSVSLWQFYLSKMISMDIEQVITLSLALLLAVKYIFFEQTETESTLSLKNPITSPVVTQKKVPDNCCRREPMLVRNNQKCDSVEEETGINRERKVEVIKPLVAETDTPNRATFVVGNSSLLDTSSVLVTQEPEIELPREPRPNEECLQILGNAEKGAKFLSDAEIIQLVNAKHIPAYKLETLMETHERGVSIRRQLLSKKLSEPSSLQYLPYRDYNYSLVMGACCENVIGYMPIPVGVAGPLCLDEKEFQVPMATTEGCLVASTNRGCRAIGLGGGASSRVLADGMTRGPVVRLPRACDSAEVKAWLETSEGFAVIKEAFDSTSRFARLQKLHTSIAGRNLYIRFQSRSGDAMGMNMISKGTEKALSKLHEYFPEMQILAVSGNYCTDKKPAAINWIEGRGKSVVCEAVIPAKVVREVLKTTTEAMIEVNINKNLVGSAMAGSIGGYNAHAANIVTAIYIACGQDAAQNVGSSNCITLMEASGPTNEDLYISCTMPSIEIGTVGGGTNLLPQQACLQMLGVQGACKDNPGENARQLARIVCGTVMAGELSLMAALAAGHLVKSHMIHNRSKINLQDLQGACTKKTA
The experiment in a line: Inhibition of human HMGR.

In the case of `C=C1[C@H]2CC[C@@](C)(O)[C@H]2C[C@@]2(C)CC[C@H]([C@@H](C)CC/C=C(\C)CO)[C@@H]2C[C@@H]1O`, the IC50 (in general, the concentration at which inhibition is half-maximal) is 19.4 µM in the test on Splenocyte [1], over 40 µM with Splenocyte [2] and over 40 µM in the test with RAW264.7.
`C/C1=C/C[C@H]2[C@@H]([C@@H](C)CC/C=C(\C)CO)CC[C@]2(C)C[C@@]2(O)[C@H](C)CC[C@H]12`: the IC50 with Splenocyte [1] is over 40 µM; in the test with Splenocyte [2], 2.29 µM; with RAW264.7, over 40 µM.
Take `C=C1[C@H]2[C@@H](O)C[C@@](C)(O)[C@H]2C[C@@]2(C)CC[C@H]([C@@H](C)CC/C=C(\C)C(=O)O)[C@@H]2C[C@@H]1O`: the half-maximal inhibitory concentration (IC50) in the test with Splenocyte [1], in the test with Splenocyte [2] and with RAW264.7 was over 40 µM in each case.
For the molecule `CC(C)=C/C=C\[C@H](C)[C@H]1CC[C@]2(C)C[C@@H]3C(C)=CC(=O)[C@H]3[C@H](CO)CC[C@@H]12`, the figures for the IC50 in the test on Splenocyte [1], with Splenocyte [2] and with RAW264.7 were over 40 µM, over 40 µM and 8.31 µM, respectively.
`CC(C)=C/C=C\[C@H](C)[C@H]1CC[C@]2(C)C[C@@]3(O)[C@H](C)C[C@@H](O)[C@@H]3/C(CO)=C\C[C@@H]12`: the IC50 was over 40 µM in the test on Splenocyte [1], 35.8 µM in the test with Splenocyte [2] and over 40 µM in the test on RAW264.7.
Regarding `CC(C)=C/C=C\[C@H](C)[C@H]1CC[C@]2(C)C[C@@]3(O)[C@H](C)CC[C@@H]3/C(CO)=C\C[C@@H]12`, the IC50 is over 40 µM in the test with Splenocyte [1], 15.6 µM with Splenocyte [2] and over 40 µM in the test with RAW264.7.
As to `CC(C)=C/C=C\[C@H](C)[C@H]1CC[C@]2(C)C[C@@H]3C(=O)C=C4C3=C(CC[C@@H]12)C(=O)N4CCO`, the IC50 in the test with Splenocyte [1] is 25.4 µM; in the test on Splenocyte [2], over 40 µM; with RAW264.7, over 40 µM.
Consider `C=C1[C@H]2[C@H](O)C[C@@](C)(O)[C@H]2C[C@@]2(C)CC[C@H]([C@@H](C)CC/C=C(\C)C(=O)O)[C@@H]2C[C@@H]1O`, for which the IC50 was over 40 µM in the test on Splenocyte [1], 10.8 µM with Splenocyte [2] and over 40 µM in the test on RAW264.7.
As to `CC1=CC(=O)[C@H]2/C(CO)=C\C[C@H]3[C@@H]([C@@H](C)/C=C\[C@@H]4OC4(C)C)CC[C@]3(C)C[C@H]12`, the IC50 in the test with Splenocyte [1], with Splenocyte [2] and in the test with RAW264.7 was over 40 µM in each case.
Consider `CC(C)=C[C@H]1C[C@H](C)[C@]2(CC[C@]3(C)C[C@@H]4C(=O)C=C5C4=C(CC[C@H]32)C(=O)N5CCO)O1`, for which, in the test on Candida albicans, the MIC (in general, the lowest concentration found to suppress growth) was found to be 4 µg/mL. The molecule further yielded an IC50 in test [3] of 2500 nM.
On to `CC(C)=CCC[C@H](C)[C@H]1CC[C@]2(C)C[C@@]3(O)[C@H](C)CC[C@@H]3/C(CO)=C\C[C@@H]12`, for which the IC50 in the test with Splenocyte [1], in the test on Splenocyte [2] and in the test with RAW264.7 was over 40 µM throughout.
For `CC(C)=C/C=C/[C@H](C)[C@H]1CC[C@]2(C)C[C@@]3(O)[C@H](C)C[C@@H](O)[C@@H]3/C(CO)=C\C[C@@H]12`, the IC50 in the test with Splenocyte [1], in the test on Splenocyte [2] and in the test on RAW264.7 was over 40 µM in each case.
As for `CC1=CC(=O)/C2=C(\CO)CC[C@H]3[C@@H]([C@@H](C)CC/C=C(\C)C(=O)O)CC[C@]3(C)C[C@H]12`, the IC50 with Splenocyte [1], in the test with Splenocyte [2] and in the test with RAW264.7 was over 40 µM throughout.
Take `C[C@@H]1C[C@H]2[C@@H]3CCC4=CC(=O)C=C[C@]4(C)[C@@]3(F)[C@@H](O)C[C@]2(C)[C@@]1(O)C(=O)CO` [DEXAMETHASONE]: the half-inhibitory concentration (IC50) in the test on Splenocyte [1] turned out to be 0.47 µM; in the test on Splenocyte [2], 0.04 µM.
